This note sets out measurements from PMC6968640, “Development of potent reversible selective inhibitors of butyrylcholinesterase as fluorescent probes” (Journal of Enzyme Inhibition and Medicinal Chemistry, 2020).

The structures appear in SMILES notation. Several values for one entry are separate records, joined by “and”; a condition that tells them apart may be missing. Equal values may be shown once. Entries after “also recorded” stand apart in the source; their conditions may differ. Read-outs that look alike come from different tables or passages of the source.

One data set concerns the target mAChE (Mus musculus, UniProt P21836). Nature of the data set: Inhibition of mAChE, method of Ellman. The class given is biochemical. The conditions noted are these: compound at 100 µM; read-out: mAChE residual activity (RA). As for the experimental part: (§1) The inhibitory potencies of these probes against cholinesterases (i.e. huAChE, murine AChE [mAChE] and huBChE) were determined using the method of Ellman[18], as previously described. The assays were carried out at room temperature in 100 mM phosphate buffer, pH 8.0, containing 333 µM Ellman reagent (5,5′-dithiobis(2-nitrobenzoic acid); DTNB), 500 µM substrate (huAChE/mAChE: acetylthiocholine; huBChE: butyrylthiocholine iodide [BSCh]) and huAChE/mAChE or huBChE (50 pM, 1 nM, respectively). […] Formation of the yellow product was followed for 1 min as the change in the absorbance at 412 nm, using a microplate reader (Synerg H4; BioTek Instruments, Inc., USA). For screening for inhibitory activities, the compounds were assayed at 100 µM, in triplicate. The initial velocities in the absence (v0) and presence (vi) of the test compounds were calculated. […].
(§2) For the IC50 measurements, serial dilutions were prepared for the compounds with RAs <50% at 100 µM. The IC50 values were calculated by plotting the RAs against the compound concentration according to a four-parameter logistic function, using the GraphPad Prism 8 software (GraphPad Software, USA). All of the measurements were repeated twice, each of which was in triplicate.
For orientation: In Ellman's method for cholinesterases, released thiocholine reacts with DTNB.

The target in a further data set is huAChE (Homo sapiens, UniProt P22303). Description: Inhibition of huAChE, method of Ellman. The class given is biochemical. The conditions noted are these: compound at 100 µM; read-out: huAChE residual activity (RA). As for the experimental part: as §1, §2
The target in data set [1] is T1, hBChE (Homo sapiens, UniProt P06276). Description: Inhibition of huBChE, method of Ellman. The class given is biochemical. The conditions noted are these: for remaining activity at 100 µM: compound at 100 µM, read-out: huBChE residual activity (RA); for IC50: 500 µM butyrylthiocholine iodide, 1 nM enzyme, pH 8.0, room temperature. On the procedure:
as §1, §2

The target of another data set is T2, BChE in rat brain slices (Rattus norvegicus, UniProt Q9JKC1).
T2 construct: coronal cryosections (10 μm) of a rat brain; from tissue; host or cells: rat brain coronal cryosections at the level of the thalamus
The conditions noted are these: rat brain cryosections, AChE blocked with 0.1 mM BW-284C51.

Data set [2] deals with T1, hBChE. Nature of the data set: Fluorescence titration of hBChE with probe 2C. The conditions noted are these: in duplicate, fitted to sum of hyperbolic and linear equation; read-out: binding constant from fluorescence titration. As for the experimental part:
4. Titration of hBChE with probe 2C
Figure S2. The fluorescence titration data, in duplicate, were simultaneously fitted to the sum of hyperbolic and linear equation. The determined binding constant for probe 2C was 5.5 +/- 1.6 nM, remarkably similar to the inhibition constant for the binding to the free enzyme (3.3 nM, see Table 1 in […]
(1 picture or pasted object on this page, not shown here)

Another data set deals with T3, purified huBChE (Homo sapiens, UniProt P06276).
T3 construct: gift from Drs; O. Lockridge and L. Schopfer
Description: Kinetic studies: progress curves of BSCh hydrolysis by purified huBChE. The class given is biochemical. The conditions noted are these: 25 °C, 25 mM phosphate buffer pH 7.0, about 50 µM BSCh. As for the experimental part:
Purified huBChE was a generous gift from Drs. O. Lockridge and L. Schopfer. DTNB and BSCh were from Sigma. All other reagents used were of analytical grade. The experiments were carried out at 25 °C in 25 mM phosphate buffer, pH 7.0.
Three compounds (2C, 3A, 3B) were tested by measuring the progress curves for BSCh hydrolysis by huBChE in the absence and presence of each of these compounds at five to seven concentrations. Assays were carried out over 10 min, in a 0.6-ml cuvette, using the method of Ellman et al[18]. The compound concentrations used were: 2C, 0–1 µM; 3A, 0–200 µM; and 3B, 0–50 nM.
The concentration of purified huBChE, which was always the final addition to these assays, was ∼0.5 nM. The hydrolysis of 50 µM BSCh was followed until completion (in most cases), in the presence of 1 mM DTNB. Reaching the plateau was important to get a precise estimate of the actual added BSCh concentration. For the calculation, the molar absorption coefficient of […] was used. All of the measurements were performed using a conventional UV/Vis spectrophotometer (Lambda45; Perkin-Elmer). Due to the experimental manipulation, a dead time of 10 s was added to each measurement, and all progress curves were extrapolated accordingly prior to the analysis.
. This programme is designed to generate differential equations from drawn reaction schemes and subsequently to fit the coefficients of these equations according to least squares methodology to reproduce the experimental data using a numerical integration algorithm. For determination of the kinetics mechanisms and parameters, the van Slyke-Cullen single intermediate reaction scheme[23] for substrate hydrolysis by huBChE was combined with a reversible mixed inhibition mechanism (Figure 1). […]
Figure 1. Reaction scheme for the inhibition of BSCh hydrolysis by purified huBChE in the presence of DTNB by compounds 2C, 3A, and 3B. E, free enzyme; EA, acylated intermediate; S, substrate BSCh; P, all of the stoichiometrically released products (SCh-TNB, TNB^–); and I, compounds (inhibitors) 2C, 3A, and 3B. The symbols for the constants are: kcat (k1), catalytic constant for BSCh turnover; Km (k0), Michaelis constant; Kp = k3/k2, inhibition constant for binding of the product thiocholine-TNB; K1 = k5/k4 and K2 = k7/k6, dissociation constants for binding of the compounds to the free and acylated enzyme, respectively.

The nature of data set [3]: Solubility in aqueous buffers. The class given is physicochemical.
The target of data set [4] is T1, hBChE. Description: Fluorescence emission of probes on binding to huBChE. The conditions noted are these: probe 1 μM, huBChE 500 nM, buffer. From the text:
The fluorescence properties of probes 2C and 3B were then examined when they were bound to huBChE. […] This mirrored the differences in the emission of probe 2C between the buffer solution and the organic solvents (Figure 6(B)). […]. Most probably this is due to unspecific binding to protein surface and titration study (see Supplemental material) confirms this. Future development of probe 2C should thus be orientated towards lowering the lipophilicity, which should, in turn, reduce unspecific binding.
Figure 7. […]

Where [5] appears, read: read-out: K1, dissociation constant for binding to the free enzyme.
[6] abbreviates: read-out: K2, dissociation constant for binding to the acylated enzyme.

Sequence of huAChE (P22303 32-614): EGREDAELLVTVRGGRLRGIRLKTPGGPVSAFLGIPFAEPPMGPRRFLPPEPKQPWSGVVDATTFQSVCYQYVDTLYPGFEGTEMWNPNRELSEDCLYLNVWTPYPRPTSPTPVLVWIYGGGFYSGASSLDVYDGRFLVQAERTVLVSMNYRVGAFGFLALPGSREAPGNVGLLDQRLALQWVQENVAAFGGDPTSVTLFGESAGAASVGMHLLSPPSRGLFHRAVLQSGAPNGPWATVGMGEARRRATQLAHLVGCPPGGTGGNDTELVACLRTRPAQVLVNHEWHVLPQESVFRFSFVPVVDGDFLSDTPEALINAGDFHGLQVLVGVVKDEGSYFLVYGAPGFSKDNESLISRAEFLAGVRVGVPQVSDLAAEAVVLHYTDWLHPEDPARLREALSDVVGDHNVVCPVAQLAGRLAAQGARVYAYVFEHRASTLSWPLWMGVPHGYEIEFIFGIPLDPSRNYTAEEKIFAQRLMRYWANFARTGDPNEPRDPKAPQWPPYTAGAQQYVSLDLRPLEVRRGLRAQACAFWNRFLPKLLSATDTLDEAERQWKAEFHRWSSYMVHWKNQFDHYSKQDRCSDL
Sequence of mAChE (P21836 32-614): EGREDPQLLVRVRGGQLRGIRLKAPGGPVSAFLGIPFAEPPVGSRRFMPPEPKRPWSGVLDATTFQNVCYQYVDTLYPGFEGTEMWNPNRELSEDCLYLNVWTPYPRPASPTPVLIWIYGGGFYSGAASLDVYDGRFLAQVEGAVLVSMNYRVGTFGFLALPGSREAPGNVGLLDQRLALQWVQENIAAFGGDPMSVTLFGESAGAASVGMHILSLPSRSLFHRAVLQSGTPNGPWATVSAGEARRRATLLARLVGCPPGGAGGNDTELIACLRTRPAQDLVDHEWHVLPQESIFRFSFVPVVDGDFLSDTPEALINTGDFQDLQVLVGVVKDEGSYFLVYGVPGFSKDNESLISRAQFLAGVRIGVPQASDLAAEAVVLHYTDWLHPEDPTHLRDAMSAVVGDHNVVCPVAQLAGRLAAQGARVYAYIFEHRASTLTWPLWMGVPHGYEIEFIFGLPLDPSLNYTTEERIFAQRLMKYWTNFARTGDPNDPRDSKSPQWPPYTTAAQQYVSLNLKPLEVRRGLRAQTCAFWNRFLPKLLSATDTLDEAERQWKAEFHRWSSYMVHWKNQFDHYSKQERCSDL
T1 sequence (P06276 29-602): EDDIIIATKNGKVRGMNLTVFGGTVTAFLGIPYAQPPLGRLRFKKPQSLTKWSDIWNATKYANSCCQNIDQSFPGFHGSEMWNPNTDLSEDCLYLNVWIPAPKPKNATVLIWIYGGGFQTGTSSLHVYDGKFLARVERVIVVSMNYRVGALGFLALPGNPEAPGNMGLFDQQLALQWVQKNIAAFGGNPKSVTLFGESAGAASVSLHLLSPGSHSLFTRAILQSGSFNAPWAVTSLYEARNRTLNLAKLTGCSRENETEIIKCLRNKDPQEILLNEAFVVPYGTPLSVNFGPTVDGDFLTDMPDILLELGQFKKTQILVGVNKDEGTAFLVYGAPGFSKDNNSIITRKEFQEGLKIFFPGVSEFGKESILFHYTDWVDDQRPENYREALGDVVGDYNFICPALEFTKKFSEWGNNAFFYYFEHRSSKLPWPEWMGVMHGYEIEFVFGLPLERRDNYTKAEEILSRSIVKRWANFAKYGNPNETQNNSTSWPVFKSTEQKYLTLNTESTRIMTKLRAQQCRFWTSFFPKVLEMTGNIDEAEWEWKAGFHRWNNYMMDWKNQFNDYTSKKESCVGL
T3 sequence (P06276 29-602): as above
T2 sequence (Q9JKC1 24-597): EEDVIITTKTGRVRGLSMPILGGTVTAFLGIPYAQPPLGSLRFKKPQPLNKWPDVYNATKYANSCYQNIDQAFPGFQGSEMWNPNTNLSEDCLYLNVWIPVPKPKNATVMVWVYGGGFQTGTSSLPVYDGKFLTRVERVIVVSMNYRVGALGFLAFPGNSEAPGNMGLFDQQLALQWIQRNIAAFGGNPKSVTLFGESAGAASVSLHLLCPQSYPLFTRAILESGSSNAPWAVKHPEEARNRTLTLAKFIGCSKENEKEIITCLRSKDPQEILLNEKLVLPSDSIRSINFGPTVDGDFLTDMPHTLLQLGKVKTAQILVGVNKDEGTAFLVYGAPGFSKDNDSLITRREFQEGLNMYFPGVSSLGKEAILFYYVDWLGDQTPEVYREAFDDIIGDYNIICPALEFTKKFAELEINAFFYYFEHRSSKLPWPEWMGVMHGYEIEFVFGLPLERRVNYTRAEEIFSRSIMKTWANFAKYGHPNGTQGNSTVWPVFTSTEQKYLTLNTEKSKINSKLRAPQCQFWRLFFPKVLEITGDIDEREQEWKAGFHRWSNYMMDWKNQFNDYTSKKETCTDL
Description for BChE in rat brain slices: Sections of rat brain with the highest BChE activity were selected and the modified Koelle − Karnovsky histochemical method was used to detect BChE activity[16]^,[40–42].
Histochemical staining for BChE activity of coronal cryosections (10 μm) of a rat brain from two regions (top/bottom row) at the level of the thalamus. All sections were processed with 0.1 mM BW-284C51 in Koelle solution, to completely block AChE activity. […] The relative optical density (ROD) pseudocolor scale for staining intensity of BChE activity is on the right.
BChE activity histochemical staining of coronal cryosections (10 μm) of a rat brain from
two regions at the level of the thalamus. All sections were processed with 0.1 mM BW-284C51 in
Koelle solution to completely block the AChE activity (A, B). For the inhibition experiment, the
relative optical density (ROD) pseudocolor scale for the staining intensity of BChE activity is shown
on the right. The photomicrographs show BChE -rich neurons in the laterodorsal thalamic nucleus

Take `CCN(CC)c1ccc2cc(C(=O)N(CCOC)CC3CCCN(Cc4ccccc4)C3)c(=O)oc2c1` (stereo not drawn) [1A]: the remaining activity at 100 µM on mAChE turned out to be 92%; at huAChE, 89%.

Turning to `CN(C)CCNC(=O)c1cc2ccc(N(C)C)cc2oc1=O` [2A], the remaining activity at 100 µM on huAChE is 18%. In addition, at hBChE [1], the “huBChE inhibition (in words)” value was “very low and unselective inhibition of BChE”; the remaining activity at 100 µM came to 57%.

With `CN(C)c1ccc2cc(C(=O)NCC[N+](C)(C)C)c(=O)oc2c1` [2B], on huAChE, the remaining activity at 100 µM was 25%. Also, on hBChE [1], the “huBChE inhibition (in words)” value was “very low and unselective inhibition of BChE”; the remaining activity at 100 µM was found to be 54%.

For the molecule `CCN(CC)c1ccc2cc(-c3nc(CN4CCCC(CN(CCN(C)C)C(=O)c5ccc6ccccc6c5)C4)cs3)c(=O)oc2c1` (stereo not drawn) [2C], the values for the remaining activity at 100 µM on mAChE and at huAChE were 70% and greater than 74%, respectively. For the same molecule, the “concentration needed to achieve substantial inhibition of BChE” value on BChE in rat brain slices came out at 1 mM. Further, at hBChE [2], the Kd is 5.5 ± 1.6 nM. The Ki at purified huBChE (setting [5]) was 3.3 nM and 3.27 nM; on purified huBChE (setting [6]) it was 42.7 ± 1.5 nM. For the same molecule, the “solubility in aqueous buffers (in words)” value in data set [3] was “sufficient aqueous solubility”. In addition, at hBChE [4], the “enhancement of fluorescence intensity on addition of huBChE” value is listed as “approximately two-fold”. At hBChE [1], the IC50 (as a rule, the concentration that gives 50% inhibition) was 88 nM.

Take `CCN(CC)c1ccc2cc(C(=O)NCCOCCOCCN(CC3CCCN(Cc4ccccc4)C3)S(=O)(=O)c3ccc4ccccc4c3)c(=O)oc2c1` (stereo not drawn) [3A]: the remaining activity at 100 µM on mAChE was 93%; on huAChE, 94%. Moreover, the results for the Ki on purified huBChE (setting [5]) and on purified huBChE (setting [6]) were 63 ± 0.5 nM and 296 ± 2 nM, respectively. Besides, the “solubility in aqueous buffers (in words)” value in data set [3] is “poor solubility in aqueous buffers; also recorded: low solubility”. Also, on hBChE [1], the IC50 was 60 nM.

Regarding `O=[N+]([O-])c1ccc(N2CCN(CCN(CC3CCCN(Cc4ccccc4)C3)S(=O)(=O)c3ccc4ccccc4c3)CC2)c2nonc12` (stereo not drawn) [3B], the remaining activity at 100 µM on mAChE was 97%; at huAChE, 57%. Besides, on BChE in rat brain slices, the “concentration needed to achieve substantial inhibition of BChE” value was 1 mM. The figures for the Ki at purified huBChE (setting [5]) and at purified huBChE (setting [6]) were 4.63 ± 0.02 nM and 96.6 ± 2 nM, respectively. For the same molecule, the “solubility in aqueous buffers (in words)” value in data set [3] is on record as “improved solubility in aqueous solutions compared to 3A; also recorded: sufficient aqueous solubility”. The “enhancement of fluorescence intensity on addition of huBChE” value on hBChE [4] is “only marginally increased”. Besides, the concentration for half-maximal inhibition (IC50) at hBChE [1] was 18 nM.

For `[N-]=[N+]=NCCOCCN(CC1CCCN(Cc2ccccc2)C1)S(=O)(=O)c1ccc2ccccc2c1` (stereo not drawn) [3C], the remaining activity at 100 µM on mAChE was 94%; on huAChE, 84%. Further, on hBChE [1], the “huBChE inhibition (in words)” value is “retained good inhibitory activity”. In addition, at hBChE [1], the IC50 turned out to be 19 nM.

As for `O=[N+]([O-])c1ccc(N2CCN(Cc3cn(CCOCCN(CC4CCCN(Cc5ccccc5)C4)S(=O)(=O)c4ccc5ccccc5c4)nn3)CC2)c2nonc12` (stereo not drawn) [3D], on mAChE, the remaining activity at 100 µM amounted to 100%. Further, the remaining activity at 100 µM at huAChE was found to be 98%. For the same molecule, at hBChE [1], the “huBChE inhibition (in words)” value is “substantial loss of inhibitory activity” and the IC50 worked out at 214 nM.
